According to ChEMBL document CHEMBL3352804, “One-pot synthesis of polyunsaturated fatty acid amides with anti-proliferative properties” (Bioorg Med Chem Lett, 2014):

The compounds below were run on A549 (assay: Growth inhibition of human A549 cells at 3 uM after 48 hrs by trypan blue dye exclusion method). Conditions: A549, 48 h, read-out: GI.
Format: functional

Row | Compound | inhibition of growth at 3 µM [%]
1 | CC/C=C\C/C=C\C/C=C\C/C=C\C/C=C\CCCC(=O)NC(C)CO (stereo unspecified) | 98.4
2 | CC/C=C\C/C=C\C/C=C\C/C=C\C/C=C\CCCC(=O)OCCCN(C)C | 95
3 | CC/C=C\C/C=C\C/C=C\C/C=C\C/C=C\CCCCCC(=O)NC[C@@H](O)CO | 47.4
4 | CC/C=C\C/C=C\C/C=C\C/C=C\C/C=C\C/C=C\CCC(=O)OCC(O)CO (stereo unspecified) | 59.1
5 | CC/C=C\C/C=C\C/C=C\C/C=C\C/C=C\CCCCCC(=O)NCCO | 96.9
6 | CC/C=C\C/C=C\C/C=C\C/C=C\C/C=C\CCCC(=O)NC(CO)CO | 84.2
7 | CC/C=C\C/C=C\C/C=C\C/C=C\C/C=C\C/C=C\CCC(=O)NC(CO)C(=O)O (stereo unspecified) | 68.7
8 | CC/C=C\C/C=C\C/C=C\C/C=C\C/C=C\C/C=C\CCC(=O)NCCNC(=O)CC/C=C\C/C=C\C/C=C\C/C=C\C/C=C\C/C=C\CC | 13
9 | CC/C=C\C/C=C\C/C=C\C/C=C\C/C=C\CCCCCC(=O)OCC(O)CO (stereo unspecified) | 74.5
10 | CC/C=C\C/C=C\C/C=C\C/C=C\C/C=C\CCCC(=O)NCCCNC | 67.8
11 | CC/C=C\C/C=C\C/C=C\C/C=C\C/C=C\C/C=C\CCC(=O)NCC(O)CN (stereo unspecified) | 38.3
12 | CC/C=C\C/C=C\C/C=C\C/C=C\C/C=C\CCCCCC(=O)NCC(O)CNC(=O)CCCCC/C=C\C/C=C\C/C=C\C/C=C\C/C=C\CC | 97.7
13 | CC/C=C\C/C=C\C/C=C\C/C=C\C/C=C\C/C=C\CCC(=O)NC[C@@H](O)CO | 48.1
14 | CC/C=C\C/C=C\C/C=C\C/C=C\C/C=C\CCCC(=O)OCC(O)CO (stereo unspecified) | 51.4
15 | CC/C=C\C/C=C\C/C=C\C/C=C\C/C=C\CCCC(=O)NCCO | 70.9
16 | CC/C=C\C/C=C\C/C=C\C/C=C\C/C=C\C/C=C\CCC(=O)NCCO | 29.3
17 | CC/C=C\C/C=C\C/C=C\C/C=C\C/C=C\C/C=C\CCC(=O)NC(CO)CO | 77.4
18 | CC/C=C\C/C=C\C/C=C\C/C=C\C/C=C\C/C=C\CCC(=O)N[C@H](C)CO | 98.3
19 | CC/C=C\C/C=C\C/C=C\C/C=C\C/C=C\CCCCCC(=O)NC(CO)CO | 97.4
20 | CC/C=C\C/C=C\C/C=C\C/C=C\C/C=C\C/C=C\CCC(=O)NC[C@H](O)CO | 42.3
21 | CC/C=C\C/C=C\C/C=C\C/C=C\C/C=C\C/C=C\CCC(=O)NCC(O)CNC(=O)CC/C=C\C/C=C\C/C=C\C/C=C\C/C=C\C/C=C\CC | 83.8
22 | CC/C=C\C/C=C\C/C=C\C/C=C\C/C=C\CCCCCC(=O)NC[C@H](O)CO | 31.6
23 | CC/C=C\C/C=C\C/C=C\C/C=C\C/C=C\C/C=C\CCC(=O)NCC(O)CO (stereo unspecified) | 88.7

Each compound was assayed on A549 (assay: Growth inhibition of human A549 cells after 48 hrs by trypan blue dye exclusion method). Conditions: A549, 48 h.
Format: functional, cell-based

Row | Compound | IC50 [nM]
24 | CC/C=C\C/C=C\C/C=C\C/C=C\C/C=C\C/C=C\CCC(=O)OCC(O)CO (stereo unspecified) | 1500
25 | CC/C=C\C/C=C\C/C=C\C/C=C\C/C=C\C/C=C\CCC(=O)NC(CO)CO | 480
26 | CC/C=C\C/C=C\C/C=C\C/C=C\C/C=C\C/C=C\CCC(=O)N[C@H](C)CO | 250
